Assay results as given in the NIST ThermoML archive (doi:10.1016/j.jct.2012.10.018).
± gives the expanded uncertainty stated by the source.

Assay: mn = molality of the nth substance listed, in mol/kg
Settings: 101 kPa, Liquid; for mass density: Vibrating tube method; for speed of sound: Sing-around technique in a fixed-path interferometer

O [water] + NCC(=O)NCC(=O)NCC(=O)O
Settings	mass density [kg/m3]
308.15 K, m2 = 0	994.08 ± 0.13

NCC(=O)NCC(=O)O [glycylglycine] + O
Settings	mass density, 293.15 K [kg/m3]	mass density, 298.15 K [kg/m3]	mass density, 303.15 K [kg/m3]	speed of sound, 293.15 K [m/s]	speed of sound, 298.15 K [m/s]	speed of sound, 303.15 K [m/s]
m1 = 0.0467	1000.84 ± 0.12	999.656 ± 0.12	998.24 ± 0.12	1486.4 ± 1.2	1500.5 ± 1.2	1512.8 ± 1.2
m1 = 0.103	1003.95 ± 0.12	1002.74 ± 0.12	1001.3 ± 0.12	1491.2 ± 1.2	1505.2 ± 1.2	1517.2 ± 1.2
m1 = 0.1479	1006.4 ± 0.12	1005.17 ± 0.12	1003.71 ± 0.12	1495 ± 1.2	1508.8 ± 1.2	1520.7 ± 1.2
m1 = 0.1998	1009.2 ± 0.12	1007.93 ± 0.12	1006.45 ± 0.12	1499.3 ± 1.2	1513 ± 1.2	1524.8 ± 1.2
m1 = 0.251	1011.92 ± 0.12	1010.63 ± 0.12	1009.13 ± 0.12	1503.5 ± 1.2	1517 ± 1.2	1528.7 ± 1.2
m1 = 0.2973	1014.35 ± 0.12	1013.04 ± 0.12	1011.52 ± 0.12	1507.3 ± 1.2	1520.6 ± 1.2	1532.2 ± 1.2
m1 = 0.347	1016.93 ± 0.12	1015.59 ± 0.12	1014.07 ± 0.12	1511.3 ± 1.2	1524.4 ± 1.2	1536 ± 1.2
m1 = 0.402	1019.73 ± 0.12	1018.38 ± 0.12	1016.83 ± 0.12	1515.7 ± 1.2	1528.7 ± 1.2	1540.2 ± 1.2
m1 = 0.4499	1022.14 ± 0.12	1020.78 ± 0.12	1019.21 ± 0.12	1519.3 ± 1.2	1532.3 ± 1.2	1543.6 ± 1.2

NCC(=O)NCC(=O)NCC(=O)O [glycylglycylglycine] + O
Settings	mass density, 293.15 K [kg/m3]	mass density, 298.15 K [kg/m3]	mass density, 303.15 K [kg/m3]	mass density, 308.15 K [kg/m3]	speed of sound, 293.15 K [m/s]	speed of sound, 298.15 K [m/s]	speed of sound, 303.15 K [m/s]	speed of sound, 308.15 K [m/s]
m1 = 0.025	1000.18 ± 0.13	999.002 ± 0.13	997.591 ± 0.13	995.964 ± 0.13	1485.2 ± 1.2	1499.3 ± 1.2	1511.6 ± 1.2	1522.2 ± 1.2
m1 = 0.05	1002.1 ± 0.13	1000.91 ± 0.13	999.479 ± 0.13	997.839 ± 0.13	1487.9 ± 1.2	1501.9 ± 1.2	1514.1 ± 1.2	1524.6 ± 1.2
m1 = 0.075	1004 ± 0.13	1002.79 ± 0.13	1001.35 ± 0.13	999.696 ± 0.13	1490.5 ± 1.2	1504.4 ± 1.2	1516.5 ± 1.2	1527 ± 1.2
m1 = 0.0999	1005.88 ± 0.13	1004.66 ± 0.13	1003.2 ± 0.13	1001.54 ± 0.13	1493.1 ± 1.2	1507 ± 1.2	1518.9 ± 1.2	1529.3 ± 1.2
m1 = 0.1248	1007.76 ± 0.13	1006.52 ± 0.13	1005.05 ± 0.13	1003.37 ± 0.13	1495.6 ± 1.2	1509.5 ± 1.2	1521.3 ± 1.2	1531.6 ± 1.2
m1 = 0.15	1009.64 ± 0.13	1008.38 ± 0.13	1006.9 ± 0.13	1005.21 ± 0.13	1498.1 ± 1.2	1511.8 ± 1.2	1523.7 ± 1.2	1533.9 ± 1.2
m1 = 0.175	1011.5 ± 0.13	1010.22 ± 0.13	1008.72 ± 0.13	1007.02 ± 0.13	1500.6 ± 1.2	1514.2 ± 1.2	1526 ± 1.2	1536.1 ± 1.2
m1 = 0.1926	1012.79 ± 0.13	1011.5 ± 0.13	1010 ± 0.13	1008.29 ± 0.13	1502.3 ± 1.2	1515.9 ± 1.2	1527.7 ± 1.2	1537.7 ± 1.2
m1 = 0.2706	1018.47 ± 0.13	1017.13 ± 0.13	1015.58 ± 0.13	1013.84 ± 0.13	1509.7 ± 1.2	1522.9 ± 1.2	1534.4 ± 1.2	1544.3 ± 1.2
